According to ChEMBL document CHEMBL1201862, “PubChem BioAssay data set” (2004):
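Grown in 96-well plates, cells were treated for 48 hours with each compound at five concentrations. Insufficient inhibition: endpoint recorded as highest concentration tested. Abbreviation: GI50, concentration required for 50% inhibition of growth.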 The source made the active and inactive calls. Rule as the data show it: active = GI50 up to about 1.1 µM and inactive = higher.

Experiments:
Assay in all cases: NCI-60 cell line screen, 48 h
[1] = test system: BT-549
[2] = test system: DU-145
[3] = test system: EKVX
[4] = test system: HCT-15
[5] = test system: HL-60
[6] = test system: HT-29
[7] = test system: KM12
[8] = test system: M14
[9] = test system: MDA-MB-435
[10] = test system: MDA-N
[11] = test system: NCI-H226
[12] = test system: NCI-H460
[13] = test system: RPMI-8226
[14] = test system: SK-MEL-28
[15] = test system: SN12C
[16] = test system: SR
[17] = test system: SW-620
[18] = test system: T47D
[19] = test system: U-251
[20] = test system: UO-31

Row | Compound | GI50 [1] | GI50 [2] | GI50 [3] | GI50 [4] [µM] | GI50 [5] | GI50 [6] | GI50 [7] | GI50 [8] | GI50 [9] | GI50 [10] | GI50 [11] | GI50 [12] | GI50 [13] | GI50 [14] | GI50 [15] | GI50 [16] | GI50 [17] | GI50 [18] | GI50 [19] | GI50 [20]
1 | CC(C)=CCC[C@@H](C)C1=C(Nc2ccccc2Cl)C(=O)C(C)=C(O)C1=O | 7.16 µM (inactive) | 6.64 µM (inactive) | 3.12 µM (inactive) | 2.38 | 0.612 µM (active) | 3.56 µM (inactive) | 3.08 µM (inactive) | 6.15 µM (inactive) | 4.85 µM (inactive) | 4.5 µM (inactive) | 4.69 µM (inactive) | 2.43 µM (inactive) | 1.17 µM (inactive) | 11 µM (inactive) | 3.72 µM (inactive) | 1.2 µM (inactive) | 4.71 µM (inactive) | 5.62 µM (inactive) | 4.27 µM (inactive) | 2.89 µM (inactive)
2 | COc1cc(C=C2N=C(c3ccccc3)N(n3c(-c4ccccc4)nc4ccccc4c3=O)C2=O)cc(OC)c1OC | 16.4 µM (inactive) | 27.6 µM (inactive) | 23.8 µM (inactive) | 31.5 | 49.1 µM (inactive) | 31.8 µM (inactive) | 19.7 µM (inactive) | 27.2 µM (inactive) | 24.3 µM (inactive) | 29 µM (inactive) | 25.6 µM (inactive) | 20.3 µM (inactive) | > 10 µM (inactive) | 17.7 µM (inactive) | 16.9 µM (inactive) | 40.7 µM (inactive) | 31.9 µM (inactive) | 20.3 µM (inactive) | > 10 µM (inactive) | 31 µM (inactive)
3 | Cc1ccsc1/C(S)=N\c1ccc(Cl)c(/C=N/OC(C)(C)C)c1 | 22.9 µM (inactive) | 25.5 µM (inactive) | 24.6 µM (inactive) | 31.2 | 24.2 µM (inactive) | 14.1 µM (inactive) | 25.1 µM (inactive) | 39 µM (inactive) | 53.3 µM (inactive) | 43.1 µM (inactive) | 24.7 µM (inactive) | 20.3 µM (inactive) | 26.4 µM (inactive) | 28.1 µM (inactive) | 27 µM (inactive) | 19.9 µM (inactive) | 35.3 µM (inactive) | 23.6 µM (inactive) | 24.3 µM (inactive) | 20.6 µM (inactive)
4 | CCN(CC)c1ccc(/C=C2\CCc3ccc([N+](=O)[O-])cc3C2=O)cc1 | > 100 µM (inactive) | 6.01 µM (inactive) | 5.27 µM (inactive) | 0.64 | 0.249 µM (active) | 0.256 µM (active) | 0.582 µM (active) | 3.54 µM (inactive) | 0.169 µM (active) | 0.17 µM (active) | > 100 µM (inactive) | 3.84 µM (inactive) | 0.391 µM (active) | 3.46 µM (inactive) | 2.99 µM (inactive) | 0.324 µM (active) | 0.297 µM (active) | 4.55 µM (inactive) | 1.7 µM (inactive) | 7.46 µM (inactive)
